Results taken from patent US20230085307A1, “PYRIDAZINONE COMPOUND AND HERBICIDE” (NISSAN CHEMICAL CORPORATION, priority 2019, published 2023).

Experiments:
[1] = test system: late watergrass; assay: Test Example 2: herbicidal activity, application during weed generation under submerged conditions (Table 17, symbol A); type: in vivo, late watergrass (Echinochloa oryzicola); settings: AAH 320 g/ha; application during weed generation, submerged conditions
In short: (§1)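 Steps: fill Wagner pots with alluvial soil; add water to give 4 cm depth; sow the species mixed; grow under glass at 25–30° C.; at 1–2 leaves apply water-diluted emulsion formulation to the water surface at a fixed herbicide amount; score after 3 weeks.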

[2] = test system: Japanese bulrush; assay: Test Example 2: herbicidal activity, application during weed generation under submerged conditions (Table 17, symbol B); type: in vivo, Japanese bulrush (Schoenoplectus juncoides); settings: AAH 320 g/ha; application during weed generation, submerged conditions
In short: as §1

[3] = test system: oval-leafed pondweed; assay: Test Example 2: herbicidal activity, application during weed generation under submerged conditions (Table 17, symbol C); type: in vivo, oval-leafed pondweed (Monochoria vaginalis); settings: AAH 320 g/ha; application during weed generation, submerged conditions
In short: as §1

[4] = test system: barnyard grass; assay: Test Example 3: herbicidal effect by foliage application, Wagner pot (Table 18, symbol H); type: in vivo, barnyard grass (Echinochloa crus-galli); settings: 320 g/ha
In short: (§2)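 Plants were sown in alluvial soil held under 0.1–0.5 cm standing water and grown 14 days in a greenhouse at 25–30 °C. An emulsifiable formulation, water-diluted to the set dose, was then sprayed onto the foliage, and effects were scored three weeks later using previously defined criteria.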

[5] = test system: Chinese sprangletop; assay: Test Example 3: herbicidal effect by foliage application, Wagner pot (Table 18, symbol D); type: in vivo, chinese sprangletop (Leptochloa chinensis); settings: 320 g/ha
In short: as §2

[6] = test system: rice flat sedge; assay: Test Example 3: herbicidal effect by foliage application, Wagner pot (Table 18, symbol E); type: in vivo, rice flat sedge (Cyperus iria); settings: 320 g/ha
In short: as §2

[7] = test system: southern crabgrass; assay: Test Example 4: herbicidal effect by soil treatment (Table 19, symbol F); type: in vivo, southern crabgrass (Digitaria ciliaris); settings: amount of applied herbicide 320 g/ha
In short: (§3)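 Pre-emergence style soil spray: seeds under ~1.5 cm sterilized diluvial soil received a uniform coat of emulsion diluted to the predetermined herbicide amount. Greenhouse 25–30° C; readout at week three on previously defined criteria.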

[8] = test system: green foxtail; assay: Test Example 4: herbicidal effect by soil treatment (Table 19, symbol G); type: in vivo, green foxtail (Setaria viridis); settings: amount of applied herbicide 320 g/ha
In short: as §3

[9] = test system: barnyard grass; assay: Test Example 4: herbicidal effect by soil treatment (Table 19, symbol H); type: in vivo, barnyard grass (Echinochloa crus-galli); settings: amount of applied herbicide 320 g/ha
In short: as §3

[10] = test system: wild oat; assay: Test Example 4: herbicidal effect by soil treatment (Table 19, symbol I); type: in vivo, wild oat (Avena fatua); settings: amount of applied herbicide 320 g/ha
In short: as §3

[11] = test system: Italian ryegrass; assay: Test Example 4: herbicidal effect by soil treatment (Table 19, symbol K); type: in vivo, Italian ryegrass (Lolium multiflorum); settings: amount of applied herbicide 320 g/ha
In short: as §3

[12] = test system: velvetleaf; assay: Test Example 4: herbicidal effect by soil treatment (Table 19, symbol M); type: in vivo, velvetleaf (Abutilon theophrasti); settings: amount of applied herbicide 320 g/ha
In short: as §3

[13] = test system: redroot pigweed; assay: Test Example 4: herbicidal effect by soil treatment (Table 19, symbol N); type: in vivo, redroot pigweed (Amaranthus retroflexus); settings: amount of applied herbicide 320 g/ha
In short: as §3

[14] = test system: lambsquarters; assay: Test Example 4: herbicidal effect by soil treatment (Table 19, symbol O); type: in vivo, lambsquarters (Chenopodium album); settings: amount of applied herbicide 320 g/ha
In short: as §3

[15] = test system: chickweed; assay: Test Example 4: herbicidal effect by soil treatment (Table 19, symbol P); type: in vivo, common chickweed (Stellaria media); settings: amount of applied herbicide 320 g/ha
In short: as §3

[16] = test system: false cleavers; assay: Test Example 4: herbicidal effect by soil treatment (Table 19, symbol Q); type: in vivo, false cleavers (Galium spurium); settings: amount of applied herbicide 320 g/ha
In short: as §3

[17] = test system: persian speedwell; assay: Test Example 4: herbicidal effect by soil treatment (Table 19, symbol R); type: in vivo, Persian speedwell (Veronica persica); settings: amount of applied herbicide 320 g/ha
In short: as §3

[18] = test system: southern crabgrass; assay: Test Example 5: herbicidal effect by foliage application, plastic box (Table 20, symbol F); type: in vivo, southern crabgrass (Digitaria ciliaris); settings: foliage application, 320 g/ha
In short: (§4)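 Plants were sown into sterilized diluvial soil under about 1.5 cm cover and kept in a greenhouse at 25° C. to 30° C. Fourteen days on, foliage received an even spray of the diluted emulsion. Herbicidal or crop effect was judged three weeks afterwards.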

[19] = test system: green foxtail; assay: Test Example 5: herbicidal effect by foliage application, plastic box (Table 20, symbol G); type: in vivo, green foxtail (Setaria viridis); settings: foliage application, 320 g/ha
In short: as §4

[20] = test system: barnyard grass; assay: Test Example 5: herbicidal effect by foliage application, plastic box (Table 20, symbol H); type: in vivo, barnyard grass (Echinochloa crus-galli); settings: foliage application, 320 g/ha
In short: as §4

[21] = test system: wild oat; assay: Test Example 5: herbicidal effect by foliage application, plastic box (Table 20, symbol I); type: in vivo, wild oat (Avena fatua); settings: foliage application, 320 g/ha
In short: as §4

[22] = test system: blackgrass; assay: Test Example 5: herbicidal effect by foliage application, plastic box (Table 20, symbol J); type: in vivo, blackgrass (Alopecurus myosuroides); settings: foliage application, 320 g/ha
In short: as §4

[23] = test system: Italian ryegrass; assay: Test Example 5: herbicidal effect by foliage application, plastic box (Table 20, symbol K); type: in vivo, Italian ryegrass (Lolium multiflorum); settings: foliage application, 320 g/ha
In short: as §4

[24] = test system: windgrass; assay: Test Example 5: herbicidal effect by foliage application, plastic box (Table 20, symbol L); type: in vivo, windgrass (Apera spica-venti); settings: foliage application, 320 g/ha
In short: as §4

[25] = test system: velvetleaf; assay: Test Example 5: herbicidal effect by foliage application, plastic box (Table 20, symbol M); type: in vivo, velvetleaf (Abutilon theophrasti); settings: foliage application, 320 g/ha
In short: as §4

[26] = test system: redroot pigweed; assay: Test Example 5: herbicidal effect by foliage application, plastic box (Table 20, symbol N); type: in vivo, redroot pigweed (Amaranthus retroflexus); settings: foliage application, 320 g/ha
In short: as §4

[27] = test system: lambsquarters; assay: Test Example 5: herbicidal effect by foliage application, plastic box (Table 20, symbol O); type: in vivo, lambsquarters (Chenopodium album); settings: foliage application, 320 g/ha
In short: as §4

[28] = test system: chickweed; assay: Test Example 5: herbicidal effect by foliage application, plastic box (Table 20, symbol P); type: in vivo, common chickweed (Stellaria media); settings: foliage application, 320 g/ha
In short: as §4

[29] = test system: false cleavers; assay: Test Example 5: herbicidal effect by foliage application, plastic box (Table 20, symbol Q); type: in vivo, false cleavers (Galium spurium); settings: foliage application, 320 g/ha
In short: as §4

[30] = test system: persian speedwell; assay: Test Example 5: herbicidal effect by foliage application, plastic box (Table 20, symbol R); type: in vivo, Persian speedwell (Veronica persica); settings: foliage application, 320 g/ha
In short: as §4

[31] = test system: windgrass; assay: Test Example 4: herbicidal effect by soil treatment (Table 19, symbol L); type: in vivo, windgrass (Apera spica-venti); settings: amount of applied herbicide 320 g/ha
In short: as §3

[32] = evaluated three weeks after application

Cc1nn(C)c(=O)c(-c2c(-c3ccc4c(c3)OCC4)sc3ccccc23)c1O [1-085]
herbicidal effect rating, A: late watergrass [1]: 1 (Herbicidal rate of 5% or more and less than 20%)
herbicidal effect rating, B: Japanese bulrush [2]: 1 (Herbicidal rate of 5% or more and less than 20%)
herbicidal effect rating, C: oval-leafed pondweed [3]: 2 (Herbicidal rate of 20% or more and less than 40%)
herbicidal effect on H (barnyard grass), rating 0-5 [4]: 5 (Herbicidal rate of 90% or more (almost completely withered))
herbicidal effect on D (Chinese sprangletop), rating 0-5 [5]: 4 (Herbicidal rate of 70% or more and less than 90%)
herbicidal effect on E (rice flat sedge), rating 0-5 [6]: 5 (Herbicidal rate of 90% or more (almost completely withered))
herbicidal effect rating, F: southern crabgrass [7]: 5 (Herbicidal rate of 90% or more (almost completely withered))
herbicidal effect rating, G: green foxtail [8]: 4 (Herbicidal rate of 70% or more and less than 90%)
herbicidal effect rating, H: barnyard grass [9]: 4 (Herbicidal rate of 70% or more and less than 90%)
herbicidal effect rating, I: wild oat [10]: 0 (Herbicidal rate of 5% or less (almost no effect))
herbicidal effect rating, K: Italian ryegrass [11]: 5 (Herbicidal rate of 90% or more (almost completely withered))
herbicidal effect rating, M: velvetleaf [12]: 3 (Herbicidal rate of 40% or more and less than 70%)
herbicidal effect rating, N: redroot pigweed [13]: 5 (Herbicidal rate of 90% or more (almost completely withered))
herbicidal effect rating, O: lambsquarters [14]: 5 (Herbicidal rate of 90% or more (almost completely withered))
herbicidal effect rating, P: chickweed [15]: 4 (Herbicidal rate of 70% or more and less than 90%)
herbicidal effect rating, Q: false cleavers [16]: 4 (Herbicidal rate of 70% or more and less than 90%)
herbicidal effect rating, R: persian speedwell [17]: 4 (Herbicidal rate of 70% or more and less than 90%)
herbicidal effect grade, F: southern crabgrass ([18]; three weeks after application): 5 (Herbicidal rate of 90% or more (almost completely withered))
herbicidal effect grade, G: green foxtail ([19]; three weeks after application): 5 (Herbicidal rate of 90% or more (almost completely withered))
herbicidal effect grade, H: barnyard grass ([20]; three weeks after application): 5 (Herbicidal rate of 90% or more (almost completely withered))
herbicidal effect grade, I: wild oat ([21]; three weeks after application): 4 (Herbicidal rate of 70% or more and less than 90%)
herbicidal effect grade, J: blackgrass ([22]; three weeks after application): 4 (Herbicidal rate of 70% or more and less than 90%)
herbicidal effect grade, K: Italian ryegrass ([23]; three weeks after application): 5 (Herbicidal rate of 90% or more (almost completely withered))
herbicidal effect grade, L: windgrass ([24]; three weeks after application): 5 (Herbicidal rate of 90% or more (almost completely withered))
herbicidal effect grade, M: velvetleaf ([25]; three weeks after application): 5 (Herbicidal rate of 90% or more (almost completely withered))
herbicidal effect grade, N: redroot pigweed ([26]; three weeks after application): 5 (Herbicidal rate of 90% or more (almost completely withered))
herbicidal effect grade, O: lambsquarters ([27]; three weeks after application): 5 (Herbicidal rate of 90% or more (almost completely withered))
herbicidal effect grade, P: chickweed ([28]; three weeks after application): 5 (Herbicidal rate of 90% or more (almost completely withered))
herbicidal effect grade, Q: false cleavers ([29]; three weeks after application): 5 (Herbicidal rate of 90% or more (almost completely withered))
herbicidal effect grade, R: persian speedwell ([30]; three weeks after application): 5 (Herbicidal rate of 90% or more (almost completely withered))

CCCC(=O)Oc1c(C)nn(C)c(=O)c1-c1c(-c2ccc3c(c2)OCO3)sc2ccc(Cl)cc12 [2-126]
herbicidal effect rating, A: late watergrass [1]: 0 (Herbicidal rate of 5% or less (almost no effect))
herbicidal effect rating, B: Japanese bulrush [2]: 0 (Herbicidal rate of 5% or less (almost no effect))
herbicidal effect rating, C: oval-leafed pondweed [3]: 2 (Herbicidal rate of 20% or more and less than 40%)
F: southern crabgrass, herbicidal effect rating [7]: 0 (Herbicidal rate of 5% or less (almost no effect))
G: green foxtail, herbicidal effect rating [8]: 0 (Herbicidal rate of 5% or less (almost no effect))
H: barnyard grass, herbicidal effect rating [9]: 0 (Herbicidal rate of 5% or less (almost no effect))
I: wild oat, herbicidal effect rating [10]: 0 (Herbicidal rate of 5% or less (almost no effect))
K: Italian ryegrass, herbicidal effect rating [11]: 0 (Herbicidal rate of 5% or less (almost no effect))
L: windgrass, herbicidal effect rating [31]: 0 (Herbicidal rate of 5% or less (almost no effect))
M: velvetleaf, herbicidal effect rating [12]: 0 (Herbicidal rate of 5% or less (almost no effect))
N: redroot pigweed, herbicidal effect rating [13]: 0 (Herbicidal rate of 5% or less (almost no effect))
O: lambsquarters, herbicidal effect rating [14]: 2 (Herbicidal rate of 20% or more and less than 40%)
P: chickweed, herbicidal effect rating [15]: 3 (Herbicidal rate of 40% or more and less than 70%)
Q: false cleavers, herbicidal effect rating [16]: 0 (Herbicidal rate of 5% or less (almost no effect))
R: persian speedwell, herbicidal effect rating [17]: 4 (Herbicidal rate of 70% or more and less than 90%)
herbicidal effect on F: southern crabgrass [18, 32]: 0 (Herbicidal rate of 5% or less (almost no effect))
herbicidal effect on G: green foxtail [19, 32]: 0 (Herbicidal rate of 5% or less (almost no effect))
herbicidal effect on H: barnyard grass [20, 32]: 0 (Herbicidal rate of 5% or less (almost no effect))
herbicidal effect on I: wild oat [21, 32]: 0 (Herbicidal rate of 5% or less (almost no effect))
herbicidal effect on J: blackgrass [22, 32]: 0 (Herbicidal rate of 5% or less (almost no effect))
herbicidal effect on K: Italian ryegrass [23, 32]: 0 (Herbicidal rate of 5% or less (almost no effect))
herbicidal effect on L: windgrass [24, 32]: 0 (Herbicidal rate of 5% or less (almost no effect))
herbicidal effect on M: velvetleaf [25, 32]: 3 (Herbicidal rate of 40% or more and less than 70%)
herbicidal effect on N: redroot pigweed [26, 32]: 1 (Herbicidal rate of 5% or more and less than 20%)
herbicidal effect on O: lambsquarters [27, 32]: 3 (Herbicidal rate of 40% or more and less than 70%)
herbicidal effect on P: chickweed [28, 32]: 2 (Herbicidal rate of 20% or more and less than 40%)
herbicidal effect on Q: false cleavers [29, 32]: 2 (Herbicidal rate of 20% or more and less than 40%)
herbicidal effect on R: persian speedwell [30, 32]: 5 (Herbicidal rate of 90% or more (almost completely withered))
